Key:
[1] = In vivo toxicity study, dogs; settings: dog, read-out: Maximum tolerated dose
Method: A study was conducted to test the toxicity of labeled formula XIII in rats and dogs. Maximum tolerated doses were 40 mg/kg for rats and 35 mg/kg for dogs.

[2] = Tissue distribution of radioactivity by Quantitative Whole-Body Autoradiography (QWBA), Group 4; type: in vivo; settings: rat
Method: A study was conducted to determine the pharmacokinetics, rates and routes of excretion with mass baseline and tissue distribution of radioactivity, after a single intravenous dose administration of formula XIII (also referred to as [^14C]DAP) was administered to the rats by tail vein intravenous injection at a
The study was conducted on 19 male rats divided into 4 groups. The first group of 6 rats was used for blood collection (Group 1); the second group of 4 rats was used for urine, feces, cage rinses and wipes and carcasses collection (Group 2); the third group of 4 rats was used for expired air collection (Group 3); the fourth group of 5 rats was used for terminal blood/serum and tissue distribution by Quantitative Whole-Body Autoradiography (QWBA) (Group 4).
For Group 4, formula XIII (QWBA was run at 1, 8, 12, 24 and 72 hours post dose. After terminal blood collection, each euthanized animal was frozen in a hexane/dry ice bath and embedded in a 2% carboxymethylcellulose matrix according to MPI Research SOP ADME-112. The embedded carcasses were sectioned according to MPI Research SOP ADME-113 on a Leica CM3600 Cyromacrotome set to maintain −10 to −30° C. At least four fortified quality control standards of known radioactive concentration were placed into the frozen block prior to sectioning and used for section thickness quality control. The quality control standards were sectioned under the same conditions as the specimen. The intrasection and intersection variation of collected sections were determined by analyzing the quality control standards. Section variation must be less than 20% for quantitative analysis. Sections that were approximately 40μm thick were taken in the sagittal plane. Appropriate sections selected at various levels of interest in the block were collected to encompass the following tissues, organs, and biological fluids, where possible: adrenal gland, bladder (urinary) and contents (urine), blood (cardiac), bone, bone marrow, brain, eye, fat (brown), fat (white), heart, kidney, large intestine/cecum and contents, liver, lung, muscle, pancreas, prostate, salivary glands, skin, small intestine and contents, spleen, stomach and contents, testes, thymus, thyroid, mesenteric lymph nodes, and epididymis. A set of sections were mounted, exposed to phosphor imaging screens and scanned using the Storm 860 image acquisition system according to MPI Research SOP ADME-112. Quantification, relative to the calibration standards, were performed by image densitometry using MCID™ image analysis software according to MPI Research SOP ADME-114. A standard curve was constructed from the integrated response (MDC/mm2) and the nominal concentrations of the [^14C]Glucose calibration standards. Relative error should be less than 0.5 for each point on the curve. The concentrations of radioactivity were expressed as μCi/g and were converted to μg or ng-equivalents of DAP per gram of sample (μg- or ng-eq/g) using the specific activity of administered [^14C]DAP dose formulation. A lower limit of quantification (LLOQ) was applied to the data. The LLOQ was determined using the radioactive concentration of the lowest calibration standard used to generate a calibration curve divided by the specific activity of the dose formulation (μCi/ug). Artifacts, such as those produced by dislodged contents of the alimentary canal, were excluded from analysis during image analysis.

[2H]C1([2H])N(CCCNC(=O)[C@@H](N)CCCNC(=N)N)C([2H])([2H])C([2H])([2H])N(CCCNC(=O)[C@@H](N)CCCNC(=N)N)C1([2H])[2H] [formula XIII]
MTD [1]: 35 mg/kg
distribution to cartilage and tissues (autoradiograph) ([2]; 1 hour post dose, FIG. 1): distribute very well to cartilage and tissues
localization in cartilage and tissues (autoradiograph) ([2]; after 8 hours, FIG. 2): no longer localized in all of the regions identifiable in FIG. 1
Concentration of Radioactivity in Bone marrow ([2]; single IV 2 mg/kg, 1 Hour): 6820 ng Equivalents [^14C]DAP/g
Concentration of Radioactivity in Cartilage ([2]; single IV 2 mg/kg, 1 Hour): 62602 ng Equivalents [^14C]DAP/g
Concentration of Radioactivity in Kidney ([2]; single IV 2 mg/kg, 1 Hour): 51966 ng Equivalents [^14C]DAP/g
Concentration of Radioactivity in Kidney (cortex) ([2]; single IV 2 mg/kg, 1 Hour): 55358 ng Equivalents [^14C]DAP/g
Concentration of Radioactivity in Kidney (medulla) ([2]; single IV 2 mg/kg, 1 Hour): 19308 ng Equivalents [^14C]DAP/g
Concentration of Radioactivity in Large intestinal contents ([2]; single IV 2 mg/kg, 1 Hour): BLQ (Below limit of quantitation (<172 ng equivalents [^14C]PER977/g))
Concentration of Radioactivity in Liver ([2]; single IV 2 mg/kg, 1 Hour): 6377 ng Equivalents [^14C]DAP/g
Concentration of Radioactivity in Small intestine ([2]; single IV 2 mg/kg, 1 Hour): 6838 ng Equivalents [^14C]DAP/g
Concentration of Radioactivity in Thymus ([2]; single IV 2 mg/kg, 1 Hour): 10420 ng Equivalents [^14C]DAP/g
Concentration of Radioactivity in Urinary bladder ([2]; single IV 2 mg/kg, 1 Hour): 26725 ng Equivalents [^14C]DAP/g
Concentration of Radioactivity in Urine ([2]; single IV 2 mg/kg, 1 Hour): 195176 ng Equivalents [^14C]DAP/g
Concentration of Radioactivity in Bone marrow ([2]; single IV 2 mg/kg, 8 Hours): 5524 ng Equivalents [^14C]DAP/g
Concentration of Radioactivity in Cartilage ([2]; single IV 2 mg/kg, 8 Hours): 13038 ng Equivalents [^14C]DAP/g
Concentration of Radioactivity in Kidney ([2]; single IV 2 mg/kg, 8 Hours): 43380 ng Equivalents [^14C]DAP/g
Concentration of Radioactivity in Kidney (cortex) ([2]; single IV 2 mg/kg, 8 Hours): 45541 ng Equivalents [^14C]DAP/g
Concentration of Radioactivity in Kidney (medulla) ([2]; single IV 2 mg/kg, 8 Hours): 3454 ng Equivalents [^14C]DAP/g
Concentration of Radioactivity in Large intestinal contents ([2]; single IV 2 mg/kg, 8 Hours): 510 ng Equivalents [^14C]DAP/g
Concentration of Radioactivity in Liver ([2]; single IV 2 mg/kg, 8 Hours): 3150 ng Equivalents [^14C]DAP/g
Concentration of Radioactivity in Small intestine ([2]; single IV 2 mg/kg, 8 Hours): 6643 ng Equivalents [^14C]DAP/g
Concentration of Radioactivity in Thymus ([2]; single IV 2 mg/kg, 8 Hours): 15093 ng Equivalents [^14C]DAP/g
Concentration of Radioactivity in Urinary bladder ([2]; single IV 2 mg/kg, 8 Hours): 1429 ng Equivalents [^14C]DAP/g
Concentration of Radioactivity in Urine ([2]; single IV 2 mg/kg, 8 Hours): 8374 ng Equivalents [^14C]DAP/g
Concentration of Radioactivity in Bone marrow ([2]; single IV 2 mg/kg, 12 Hours): 4948 ng Equivalents [^14C]DAP/g
Concentration of Radioactivity in Cartilage ([2]; single IV 2 mg/kg, 12 Hours): 7749 ng Equivalents [^14C]DAP/g
Concentration of Radioactivity in Cerebellum ([2]; single IV 2 mg/kg, 12 Hours): BLQ (Below limit of quantitation (<172 ng equivalents [^14C]PER977/g))
Concentration of Radioactivity in Cerebrum ([2]; single IV 2 mg/kg, 12 Hours): BLQ (Below limit of quantitation (<172 ng equivalents [^14C]PER977/g))
Concentration of Radioactivity in Gastric mucosa ([2]; single IV 2 mg/kg, 12 Hours): 2118 ng Equivalents [^14C]DAP/g
Concentration of Radioactivity in Kidney ([2]; single IV 2 mg/kg, 12 Hours): 40930 ng Equivalents [^14C]DAP/g
Concentration of Radioactivity in Kidney (cortex) ([2]; single IV 2 mg/kg, 12 Hours): 48959 ng Equivalents [^14C]DAP/g
Concentration of Radioactivity in Kidney (medulla) ([2]; single IV 2 mg/kg, 12 Hours): 2981 ng Equivalents [^14C]DAP/g
Concentration of Radioactivity in Large intestinal contents ([2]; single IV 2 mg/kg, 12 Hours): 4752 ng Equivalents [^14C]DAP/g
Concentration of Radioactivity in Liver ([2]; single IV 2 mg/kg, 12 Hours): 3330 ng Equivalents [^14C]DAP/g
Concentration of Radioactivity in Medulla ([2]; single IV 2 mg/kg, 12 Hours): BLQ (Below limit of quantitation (<172 ng equivalents [^14C]PER977/g))
Concentration of Radioactivity in Small intestine ([2]; single IV 2 mg/kg, 12 Hours): 9975 ng Equivalents [^14C]DAP/g
Concentration of Radioactivity in Spinal cord ([2]; single IV 2 mg/kg, 12 Hours): BLQ (Below limit of quantitation (<172 ng equivalents [^14C]PER977/g))
Concentration of Radioactivity in Stomach contents ([2]; single IV 2 mg/kg, 12 Hours): BLQ (Below limit of quantitation (<172 ng equivalents [^14C]PER977/g))
Concentration of Radioactivity in Thymus ([2]; single IV 2 mg/kg, 12 Hours): 14584 ng Equivalents [^14C]DAP/g
Concentration of Radioactivity in Urinary bladder ([2]; single IV 2 mg/kg, 12 Hours): 1095 ng Equivalents [^14C]DAP/g
Concentration of Radioactivity in Urine ([2]; single IV 2 mg/kg, 12 Hours): 5011 ng Equivalents [^14C]DAP/g
Concentration of Radioactivity in Bone marrow ([2]; single IV 2 mg/kg, 24 Hours): 1987 ng Equivalents [^14C]DAP/g
Concentration of Radioactivity in Eye (lens) ([2]; single IV 2 mg/kg, 24 Hours): BLQ (Below limit of quantitation (<172 ng equivalents [^14C]PER977/g))
Concentration of Radioactivity in Gastric mucosa ([2]; single IV 2 mg/kg, 24 Hours): 1438 ng Equivalents [^14C]DAP/g
Concentration of Radioactivity in Kidney ([2]; single IV 2 mg/kg, 24 Hours): 39548 ng Equivalents [^14C]DAP/g
Concentration of Radioactivity in Kidney (cortex) ([2]; single IV 2 mg/kg, 24 Hours): 40820 ng Equivalents [^14C]DAP/g
Concentration of Radioactivity in Kidney (medulla) ([2]; single IV 2 mg/kg, 24 Hours): 2011 ng Equivalents [^14C]DAP/g
Concentration of Radioactivity in Large intestinal contents ([2]; single IV 2 mg/kg, 24 Hours): 1801 ng Equivalents [^14C]DAP/g
Concentration of Radioactivity in Small intestine ([2]; single IV 2 mg/kg, 24 Hours): 5090 ng Equivalents [^14C]DAP/g
Concentration of Radioactivity in Spinal cord ([2]; single IV 2 mg/kg, 24 Hours): BLQ (Below limit of quantitation (<172 ng equivalents [^14C]PER977/g))
Concentration of Radioactivity in Stomach contents ([2]; single IV 2 mg/kg, 24 Hours): BLQ (Below limit of quantitation (<172 ng equivalents [^14C]PER977/g))
Concentration of Radioactivity in Thymus ([2]; single IV 2 mg/kg, 24 Hours): 11451 ng Equivalents [^14C]DAP/g
Concentration of Radioactivity in Urinary bladder ([2]; single IV 2 mg/kg, 24 Hours): 606 ng Equivalents [^14C]DAP/g
Concentration of Radioactivity in Urine ([2]; single IV 2 mg/kg, 24 Hours): 4553 ng Equivalents [^14C]DAP/g
Concentration of Radioactivity in Blood ([2]; single IV 2 mg/kg, 72 Hours): BLQ (Below limit of quantitation (<172 ng equivalents [^14C]PER977/g))
Concentration of Radioactivity in Bone ([2]; single IV 2 mg/kg, 72 Hours): BLQ (Below limit of quantitation (<172 ng equivalents [^14C]PER977/g))
Concentration of Radioactivity in Bone marrow ([2]; single IV 2 mg/kg, 72 Hours): 841 ng Equivalents [^14C]DAP/g
Concentration of Radioactivity in Cerebellum ([2]; single IV 2 mg/kg, 72 Hours): BLQ (Below limit of quantitation (<172 ng equivalents [^14C]PER977/g))
Concentration of Radioactivity in Epididymis ([2]; single IV 2 mg/kg, 72 Hours): BLQ (Below limit of quantitation (<172 ng equivalents [^14C]PER977/g))
Concentration of Radioactivity in Kidney ([2]; single IV 2 mg/kg, 72 Hours): 18515 ng Equivalents [^14C]DAP/g
Concentration of Radioactivity in Kidney (cortex) ([2]; single IV 2 mg/kg, 72 Hours): 15748 ng Equivalents [^14C]DAP/g
Concentration of Radioactivity in Kidney (medulla) ([2]; single IV 2 mg/kg, 72 Hours): 556 ng Equivalents [^14C]DAP/g
Concentration of Radioactivity in Large intestinal contents ([2]; single IV 2 mg/kg, 72 Hours): 824 ng Equivalents [^14C]DAP/g
Concentration of Radioactivity in Medulla ([2]; single IV 2 mg/kg, 72 Hours): BLQ (Below limit of quantitation (<172 ng equivalents [^14C]PER977/g))
Concentration of Radioactivity in Muscle ([2]; single IV 2 mg/kg, 72 Hours): BLQ (Below limit of quantitation (<172 ng equivalents [^14C]PER977/g))
Concentration of Radioactivity in Seminal vesicles ([2]; single IV 2 mg/kg, 72 Hours): BLQ (Below limit of quantitation (<172 ng equivalents [^14C]PER977/g))
Concentration of Radioactivity in Small intestine ([2]; single IV 2 mg/kg, 72 Hours): 1597 ng Equivalents [^14C]DAP/g
Concentration of Radioactivity in Spinal cord ([2]; single IV 2 mg/kg, 72 Hours): BLQ (Below limit of quantitation (<172 ng equivalents [^14C]PER977/g))
Concentration of Radioactivity in Stomach contents ([2]; single IV 2 mg/kg, 72 Hours): BLQ (Below limit of quantitation (<172 ng equivalents [^14C]PER977/g))
Concentration of Radioactivity in Testes ([2]; single IV 2 mg/kg, 72 Hours): BLQ (Below limit of quantitation (<172 ng equivalents [^14C]PER977/g))
Concentration of Radioactivity in Thymus ([2]; single IV 2 mg/kg, 72 Hours): 8365 ng Equivalents [^14C]DAP/g
Concentration of Radioactivity in Urinary bladder ([2]; single IV 2 mg/kg, 72 Hours): 283 ng Equivalents [^14C]DAP/g
Concentration of Radioactivity in Urine ([2]; single IV 2 mg/kg, 72 Hours): 3866 ng Equivalents [^14C]DAP/g

Reference: patent US9999690B2, “Labeled compounds and methods of imaging, diagnosing cartilage disorders and diseases, and monitoring cartilage health using labeled and unlabeled compounds” (Perosphere Inc., priority 2013, dated 2018)
